What all share (type): cell-based, human
One assay has as its system AGS. Kind of assay: MTT antiproliferative assay, AGS cells. The following applies: Homo sapiens, AGS, 48 h, MTT, means ± SD, n = 3. From the text:
(§1) Human gastric cancer (AGS), human differentiation of advanced gastric cancer (MGC803), human colorectal cancer (HCT116), human lung cancer (A549), human hepatocellular carcinoma (Bel7402) and human cervical cancer (HeLa) cell lines were obtained from the State Key Laboratory of Natural Resources and Functional Molecules of the Changbai Mountain (Yanbian University) and maintained in Dulbecco’s modified Eagle’s medium and RPMI Media 1640 (RPMI1640), supplemented with 10% foetal bovine serum 100 IU/ml penicillin, […] and 2 mmol/l L-glutamine (Sigma) at 37 °7 in a humidified atmosphere containing 5% CO2.
(§2) All six human cancer cell lines and normal L02 cells were seeded in 96-well plates at the appropriate densities to ensure exponential growth throughout the experimental period (9 × 10^3 cells per well) and then allowed to adhere for 24 h. The cells were then treated for 48 h with four serial dilutions (100, 50, 10, and 1 µM) of each compound. 5-Fluorouracil (5-FU) was used as the positive control. After incubation for 48 h, 10 µl MTT solution was added to each well to give a final concentration of 2 mg ml^−1. The plates were then incubated for further 4 h. After incubation, the MTT solution was removed and 150 µl DMSO was added to each well to solubilise the formed product. To ensure complete solubilisation, the plates were shaken vigorously for 10 min at room temperature. The optometric density (OD) was read on a microplate reader (ELx800, BioTek, Highland Park, Winooski, VT) at a wavelength of 492 nm and the data were subsequently analysed. The percentage of cell growth inhibition was calculated from the following equation: inhibitory rate (%) = [1–(ODtreated–ODblank)/(ODcontrol–ODblank)] × 100.
(§3) The MTT assay was performed using a standard protocol.
(Formazan colour is commonly taken as a measure of viable cells.)

Another assay deals with Bel7402. Kind of assay: MTT antiproliferative assay, Bel7402 cells. The following applies: Homo sapiens, Bel-7402; MTT, 48 h, means ± SD, n = 3.
Source text: as §1, §2, §3

For a further assay, the system named is Hela. The experiment in a line: MTT antiproliferative assay, HeLa cells. The following applies: Homo sapiens, HeLa; MTT, 48 h, means ± SD, n = 3.
Source text: as §1, §2, §3

Another assay has as its system A549. The experiment in a line: MTT antiproliferative assay, A549 cells. The following applies: Homo sapiens, A549; MTT, 48 h, means ± SD, n = 3.
Source text: as §1, §2, §3

For another assay, the system named is HCT116. The experiment in a line: MTT antiproliferative assay, HCT116 cells. The following applies: MTT, 48 h, means ± SD, n = 3.
Source text: as §1, §2, §3

Another assay concerns MGC803. Kind of assay: MTT antiproliferative assay, MGC803 cells. The following applies: Homo sapiens, MGC-803; MTT, 48 h, means ± SD, n = 3.
Source text: as §1, §2, §3

Turning to `CC1(C)CCC(O)C23COC(O)(C(O)C12)C12C(=O)C(=Cc4ccccc4)C(CCC31)C2O` [Compound 2a, (1S,4aR,5S,6S,6aR,9S,11aS,14R,E)-8-benzylidene-1,5,6,14-tetrahydroxy-4,4-dimethyldecahydro-1H-6,11b-(epoxymethano)-6a,9-methanocyclohepta[a]naphthale-n-7(8H)-one], the concentration for half-maximal inhibition (IC50) – broadly, the concentration needed to halve the response being measured – with AGS is more than 100 µM; with Bel7402, 4.97 ± 0.56 µM; in the assay on Hela it was more than 100 µM; in the assay on A549, more than 100 µM; in the assay with HCT116 (Homo sapiens, HCT-116, 48 h), 47.1 ± 4.32 µM; in the assay with MGC803, 9.13 ± 0.82 µM.
On to `CC1(C)CCC(O)C23COC(O)(C(O)C12)C12C(=O)C(=Cc4cccc(F)c4)C(CCC31)C2O` [Compound 2b, (1S,4aR,5S,6S,6aR,9S,11aS,14R,E)-8-(3-fluorobenzylidene)-1,5,6,14-tetrahydroxy-4,4-dimethyldecahydro-1H-6,11b-(epoxymethano)-6a,9-methanocyclohepta[a]n-aphthalen-7(8H)-one], for which the IC50 in the assay with AGS was 13.9 ± 1.5 µM; in the assay on Bel7402 it was more than 100 µM; with Hela, more than 100 µM; in the assay with A549, 47.4 ± 3.49 µM; with HCT116 (Homo sapiens, HCT-116, 48 h), 36.6 ± 2.43 µM; in the assay with MGC803, 23.6 ± 1.48 µM.
With `CC1(C)CCC(O)C23COC(O)(C(O)C12)C12C(=O)C(=Cc4ccc(F)cc4)C(CCC31)C2O` [Compound 2c, (1S,4aR,5S,6S,6aR,9S,11aS,14R,E)-8-(4-fluorobenzylidene)-1,5,6,14-tetrahydroxy-4,4-dimethyldecahydro-1H-6,11b-(epoxymethano)-6a,9-methanocyclohepta[a]n-aphthalen-7(8H)-one], the half-maximal inhibitory concentration (IC50) in the assay with AGS is 14.3 ± 2.43 µM; in the assay on Bel7402, 12.6 ± 1.05 µM; with Hela, more than 100 µM; in the assay on A549 it was 59.6 ± 4.75 µM; with HCT116 (Homo sapiens, HCT-116, 48 h), 10.2 ± 1.12 µM; in the assay with MGC803 it was more than 100 µM.
Turning to `CC1(C)CCC(O)C23COC(O)(C(O)C12)C12C(=O)C(=Cc4cccc(Cl)c4)C(CCC31)C2O` [Compound 2d, (1S,4aR,5S,6S,6aR,9S,11aS,14R,E)-8-(3-chlorobenzylidene)-1,5,6,14-tetrahydrox-y-4,4-dimethyldecahydro-1H-6,11b-(epoxymethano)-6a,9-methanocyclohepta[a]-naphthalen-7(8H)-one], the concentration for half-maximal inhibition (IC50) with AGS came to 14.1 ± 1.65 µM; in the assay on Bel7402, 16.9 ± 1.3 µM; in the assay with Hela, 15.2 ± 1.47 µM; in the assay with A549, 12.7 ± 1.56 µM; with HCT116 (Homo sapiens, HCT-116, 48 h), 19.8 ± 3.19 µM; with MGC803, 2.13 ± 0.13 µM.
Regarding `CC1(C)CC[C@H](O)C23CO[C@](O)([C@@H](O)[C@H]12)[C@]12C(=O)/C(=C/c4ccc(Cl)cc4)[C@H](CC[C@@H]31)[C@H]2O` [Compound 2e, (1S,4aR,5S,6S,6aR,9S,11aS,14R,E)-8-(4-chlorobenzylidene)-1,5,6,14-tetrahydroxy-4,4-dimethyldecahydro-1H-6,11b-(epoxymethano)-6a,9-methanocyclohepta[a]-naphthalen-7(8H)-one], the half-inhibitory concentration (IC50) was 15.3 ± 1.78 µM with AGS; 9.66 ± 1.15 µM in the assay on Bel7402; more than 100 µM with Hela; 23.1 ± 3.63 µM in the assay with A549; 14 ± 1.94 µM in the assay on HCT116 (Homo sapiens, HCT-116, 48 h); 7.27 ± 0.74 µM in the assay on MGC803.
For the molecule `Cc1ccccc1/C=C1/C(=O)[C@]23[C@H](O)[C@H]1CC[C@H]2C12CO[C@]3(O)[C@@H](O)[C@@H]1C(C)(C)CC[C@@H]2O` [Compound 2f, (1S,4aR,5S,6S,6aR,9S,11aS,14R,E)-1,5,6,14-tetrahydroxy-4,4-dimethyl-8-(2-methylbenzylidene)decahydro-1H-6,11b-(epoxymethano)-6a,9-methanocyclohepta[a]-naphthalen-7(8H)-one], the concentration for half-maximal inhibition (IC50) with AGS is more than 100 µM; in the assay on Bel7402, more than 100 µM; with Hela, more than 100 µM; in the assay on A549, more than 100 µM; with HCT116 (Homo sapiens, HCT-116, 48 h) it was 59 ± 3.37 µM; in the assay with MGC803 it was 22.8 ± 1.25 µM.
As to `Cc1cccc(/C=C2/C(=O)[C@]34[C@H](O)[C@H]2CC[C@H]3C23CO[C@]4(O)[C@@H](O)[C@@H]2C(C)(C)CC[C@@H]3O)c1` [Compound 2g, (1S,4aR,5S,6S,6aR,9S,11aS,14R,E)-1,5,6,14-tetrahydroxy-4,4-dimethyl-8-(3-methylbenzylidene)decahydro-1H-6,11b-(epoxymethano)-6a,9-methanocyclohepta[a]naphthalen-7(8H)-one], the IC50 in the assay with AGS was determined as 10.8 ± 2.39 µM; with Bel7402 it was 24.2 ± 2.27 µM; in the assay with Hela it was 22.3 ± 1.92 µM; with A549, 66.9 ± 5.29 µM; in the assay on HCT116 (Homo sapiens, HCT-116, 48 h), 14.2 ± 1.31 µM; in the assay with MGC803 it was 17.7 ± 1.13 µM.
`Cc1ccc(/C=C2/C(=O)[C@]34[C@H](O)[C@H]2CC[C@H]3C23CO[C@]4(O)[C@@H](O)[C@@H]2C(C)(C)CC[C@@H]3O)cc1` [Compound 2h, (1S,4aR,5S,6S,6aR,9S,11aS,14R,E)-1,5,6,14-tetrahydroxy-4,4-dimethyl-8-(4-methylbenzylidene)decahydro-1H-6,11b-(epoxymethano)-6a,9-methanocyclohepta[a]naphthalen-7(8H)-one]: the concentration for half-maximal inhibition (IC50) in the assay on AGS was 5.26 ± 1.09 µM; with Bel7402, 11.3 ± 0.98 µM; with Hela, 28.7 ± 2.13 µM; with A549 it was 18 ± 1.49 µM; with HCT116 (Homo sapiens, HCT-116, 48 h), 10.1 ± 1.39 µM; in the assay on MGC803, 27.2 ± 2.38 µM.
In the case of `COc1ccccc1/C=C1/C(=O)[C@]23[C@H](O)[C@H]1CC[C@H]2C12CO[C@]3(O)[C@@H](O)[C@@H]1C(C)(C)CC[C@@H]2O` [Compound 2j, (1S,4aR,5S,6S,6aR,9S,11aS,14R,E)-1,5,6,14-tetrahydroxy-8-(2-methoxybenzylidene)-4,4-dimethyldecahydro-1H-6,11b-(epoxymethano)-6a,9-methanocyclohepta-[a]naphthalen-7(8H)-one], the IC50 in the assay on AGS was 2.87 ± 0.58 µM; in the assay on Bel7402, 3.56 ± 0.52 µM; with Hela, 24.7 ± 2.08 µM; in the assay on A549, 7.89 ± 0.99 µM; in the assay on HCT116 (Homo sapiens, HCT-116, 48 h), 5.08 µM; in the assay with HCT116 it was 5.48 ± 0.64 µM. Besides, the 50% inhibitory concentration (IC50) in the assay on MGC803 was found to be 10.4 ± 1.29 µM.
As for `COc1ccc(/C=C2/C(=O)[C@]34[C@H](O)[C@H]2CC[C@H]3C23CO[C@]4(O)[C@@H](O)[C@@H]2C(C)(C)CC[C@@H]3O)cc1` [Compound 2k, (1S,4aR,5S,6S,6aR,9S,11aS,14R,E)-1,5,6,14-tetrahydroxy-8-(4-methoxybenzylidene)-4,4-dimethyldecahydro-1H-6,11b-(epoxymethano)-6a,9-methanocyclohepta-[a]naphthalen-7(8H)-one], the IC50 with AGS was 2.91 ± 0.42 µM; with Bel7402 it was 4.52 ± 0.46 µM; with Hela, 68.8 ± 5.32 µM; in the assay with A549, 16.8 ± 2.51 µM; with HCT116 (Homo sapiens, HCT-116, 48 h), 2.99 ± 0.32 µM; in the assay on MGC803, 2.79 ± 0.38 µM.
For `COc1ccc(/C=C2/C(=O)[C@]34[C@H](O)[C@H]2CC[C@H]3C23CO[C@]4(O)[C@@H](O)[C@@H]2C(C)(C)CC[C@@H]3O)cc1OC` [Compound 2m, (1S,4aR,5S,6S,6aR,9S,11aS,14R,E)-8-(3,4-dimethoxybenzylidene)-1,5,6,14-tetrahydroxy-4,4-dimethyldecahydro-1H-6,11b-(epoxymethano)-6a,9-methanocyclohepta[a]naphthalen-7(8H)-one], the IC50 with AGS amounted to 17.6 ± 2.32 µM; in the assay with Bel7402, 3.15 ± 0.64 µM; with Hela it was 30.7 ± 2.9 µM; in the assay with A549 it was 13.6 ± 1.89 µM; with HCT116 (Homo sapiens, HCT-116, 48 h) it was 11.1 ± 1.83 µM; in the assay on MGC803, 17.7 ± 1.67 µM.

The record behind these values is article PMC6054517, “Design and synthesis of novel oridonin analogues as potent anticancer agents” (Journal of Enzyme Inhibition and Medicinal Chemistry, 2018).
